Measured values reported in publication PMC12668310, “High‐Throughput Synthesis and Screening of a Cyanimide Library Identifies Selective Inhibitors of ISG15‐Specific Protease mUSP18” (Angewandte Chemie (International Ed. in English), 2025).

The molecules below were run against T1, mUSP18 (Mus musculus, UniProt Q9WTV6) (assay: High-throughput screening, ISG15ct-RhoMP, single dose 1.25 µM). Details: mUSP18 %inhibition; carboxylic acid (CA) building block alone; read-out: %inh CA only.
T1 construct: (46-368); His-tag (N); made in house
T1 sequence (Q9WTV6 46-368): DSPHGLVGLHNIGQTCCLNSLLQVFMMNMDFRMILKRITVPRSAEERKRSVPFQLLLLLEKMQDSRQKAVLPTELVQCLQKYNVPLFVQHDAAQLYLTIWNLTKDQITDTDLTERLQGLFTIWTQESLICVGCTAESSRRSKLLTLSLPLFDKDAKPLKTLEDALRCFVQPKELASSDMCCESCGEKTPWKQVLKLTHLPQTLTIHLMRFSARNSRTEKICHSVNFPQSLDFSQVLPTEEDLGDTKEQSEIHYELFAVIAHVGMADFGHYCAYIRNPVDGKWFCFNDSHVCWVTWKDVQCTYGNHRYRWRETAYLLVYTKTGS
Type: biochemical, murine
In the case of O=C(O)CC1(n2cnnn2)CCOCC1 [CA310], the inhibition at 1.25 µM is reported as 3.18%. Work on O=C(O)c1sc(N2CCCC2)nc1Cl [CA311] yielded an inhibition at 1.25 µM of 3.86%. With COc1ccc(CN2CCC2C(=O)O)cc1 (centres unmarked) [CA312] the inhibition at 1.25 µM was 3.67%. Molecule COCC1CCN(c2ccc(C(=O)O)cc2)C1 (centres unmarked) [CA313] has an inhibition at 1.25 µM of 2.9%. For Cc1nn(-c2cccnc2)nc1C(=O)O [CA314], the inhibition at 1.25 µM was 5.77%. Work on Cc1nn(-c2ccccn2)c(C)c1CC(=O)O [CA315] yielded an inhibition at 1.25 µM of 3.49%. O=C(O)c1ccnn1C1CCC1 [CA316] showed an inhibition at 1.25 µM of 3.75%. With O=C(O)CC1(Cn2cnnn2)CCCCC1 [CA317] the inhibition at 1.25 µM was 3.86%. O=C(O)c1cn(CC2CCOC2)nn1 (centres unmarked) [CA318] was tested, and the inhibition at 1.25 µM was -2.05%. O=C(O)c1ccn(-c2ccc(C(F)(F)F)cn2)n1 [CA319] was tested, and the inhibition at 1.25 µM was -2.14%. Work on O=C(O)c1sccc1S(=O)(=O)NCc1ccco1 [CA320] yielded an inhibition at 1.25 µM of -2.92%. O=C(O)c1cnn(Cn2cc(Cl)cn2)c1 [CA321] showed an inhibition at 1.25 µM of -3.47%. With O=C(O)c1nc(OCC2CC2)ccc1Cl [CA322] the inhibition at 1.25 µM was -0.54%. With CC(C(=O)O)n1ccc(C2CC2)n1 (centres unmarked) [CA323] the inhibition at 1.25 µM was -0.32%. With Cn1cc(S(=O)(=O)N2CCOCC2)cc1C(=O)O [CA324] the inhibition at 1.25 µM was -1.59%. With Cn1nc(CC(=O)O)cc1C1CC1 [CA325] the inhibition at 1.25 µM was -0.57%. For COc1ccc(C(=O)O)cc1S(=O)(=O)NCCCN1CCOCC1 [CA326], the inhibition at 1.25 µM was -1.48%. In the case of Cc1sc(-n2cnnn2)c(C(=O)O)c1C [CA327], the inhibition at 1.25 µM is reported as -5.75%. In the case of Cc1noc(-c2ccc(C(=O)O)cc2)n1 [CA328], the inhibition at 1.25 µM is reported as -3.57%. In the case of CCOc1oc(-c2ccco2)nc1C(=O)O [CA329], the inhibition at 1.25 µM is reported as 14.4%. Cc1ccc(S(=O)(=O)NCCc2ccc(F)cc2)cc1C(=O)O [CA330] was tested, and the inhibition at 1.25 µM was 11.3%. With Cc1nc(-c2ccco2)ccc1C(=O)O [CA331] the inhibition at 1.25 µM was 7.93%. With O=C(CC1(C(=O)O)CCCC1)N1CCOCC1 [CA332] the inhibition at 1.25 µM was 2.56%. With CN(Cc1ccccc1)C(=O)N1CCC(C(=O)O)CC1 [CA333] the inhibition at 1.25 µM was 1.66%. For O=C(O)C1(NS(=O)(=O)C=Cc2ccccc2)CCCC1 [CA334], the inhibition at 1.25 µM was 0.85%. For O=C(O)C(Cc1ccccc1)N1CCCOC1=O (centres unmarked) [CA335], the inhibition at 1.25 µM was 2.86%. O=C(O)c1ccc(N2CCCS2(=O)=O)cc1 [CA336] was tested, and the inhibition at 1.25 µM was 1.69%. Work on Cc1ccc(CN2C(=O)CCC2C(=O)O)cc1 (centres unmarked) [CA337] yielded an inhibition at 1.25 µM of -0.24%. With O=C(O)c1nc(C2CC2)ncc1Br [CA338] the inhibition at 1.25 µM was 7.6%. Molecule CN1C(=O)CCC(C(=O)O)C1c1cccs1 (centres unmarked) [CA339] has an inhibition at 1.25 µM of 2.79%. With COc1ccc(CC(=O)O)cc1S(=O)(=O)N1CCOCC1 [CA340] the inhibition at 1.25 µM was 3.33%. In the case of O=C(O)c1ccc(-c2ccccn2)s1 [CA341], the inhibition at 1.25 µM is reported as 0.41%. With Cc1noc(C)c1S(=O)(=O)N1CCCC1C(=O)O (centres unmarked) [CA342] the inhibition at 1.25 µM was 2.95%. Cc1cc(C(=O)N(C)c2ccccc2C(=O)O)sc1C [CA343] was tested, and the inhibition at 1.25 µM was 13.5%. In the case of O=C(O)c1ccc(N2CCCCCC2)nc1 [CA344], the inhibition at 1.25 µM is reported as 0.4%. Molecule O=C(O)CC1=NN(c2cccc(Cl)c2)C(=O)C1 [CA345] has an inhibition at 1.25 µM of 2%. With Cc1oc(-c2cccs2)nc1C(=O)O [CA346] the inhibition at 1.25 µM was 8.25%. With O=C(O)c1ccnc(C2CC2)n1 [CA347] the inhibition at 1.25 µM was -0.62%. Cn1ccnc1CN1CCC(C(=O)O)CC1 [CA348] showed an inhibition at 1.25 µM of -0.25%. With O=C(O)c1cc(C2CC2)no1 [CA349] the inhibition at 1.25 µM was -3.22%.

Same assay, conditions: mUSP18 %inhibition; carboxylic acid (CA) with coupling reagents DIC/HOBT; read-out: %inh CA + DIC/HOBT
O=C(O)CC1(n2cnnn2)CCOCC1 [CA310] gave an inhibition at 1.25 µM of -2.42%. Molecule O=C(O)c1sc(N2CCCC2)nc1Cl [CA311] has an inhibition at 1.25 µM of -3.06%. COc1ccc(CN2CCC2C(=O)O)cc1 (centres unmarked) [CA312] was tested, and the inhibition at 1.25 µM was -3.27%. COCC1CCN(c2ccc(C(=O)O)cc2)C1 (centres unmarked) [CA313] was tested, and the inhibition at 1.25 µM was 43.3%. Work on Cc1nn(-c2cccnc2)nc1C(=O)O [CA314] yielded an inhibition at 1.25 µM of -5.31%. For Cc1nn(-c2ccccn2)c(C)c1CC(=O)O [CA315], the inhibition at 1.25 µM was -2.69%. With O=C(O)c1ccnn1C1CCC1 [CA316] the inhibition at 1.25 µM was -3.62%. O=C(O)CC1(Cn2cnnn2)CCCCC1 [CA317] gave an inhibition at 1.25 µM of -1.32%. Work on O=C(O)c1cn(CC2CCOC2)nn1 (centres unmarked) [CA318] yielded an inhibition at 1.25 µM of -0.23%. Work on O=C(O)c1ccn(-c2ccc(C(F)(F)F)cn2)n1 [CA319] yielded an inhibition at 1.25 µM of -1.07%. O=C(O)c1sccc1S(=O)(=O)NCc1ccco1 [CA320] gave an inhibition at 1.25 µM of 4.46%. In the case of O=C(O)c1cnn(Cn2cc(Cl)cn2)c1 [CA321], the inhibition at 1.25 µM is reported as 1.28%. Molecule O=C(O)c1nc(OCC2CC2)ccc1Cl [CA322] has an inhibition at 1.25 µM of -0.53%. Molecule CC(C(=O)O)n1ccc(C2CC2)n1 (centres unmarked) [CA323] has an inhibition at 1.25 µM of 0.72%. For Cn1cc(S(=O)(=O)N2CCOCC2)cc1C(=O)O [CA324], the inhibition at 1.25 µM was 1.03%. For Cn1nc(CC(=O)O)cc1C1CC1 [CA325], the inhibition at 1.25 µM was 0.73%. COc1ccc(C(=O)O)cc1S(=O)(=O)NCCCN1CCOCC1 [CA326] was tested, and the inhibition at 1.25 µM was -1.62%. Cc1sc(-n2cnnn2)c(C(=O)O)c1C [CA327] was tested, and the inhibition at 1.25 µM was 4.6%. Cc1noc(-c2ccc(C(=O)O)cc2)n1 [CA328] showed an inhibition at 1.25 µM of 6.75%. Work on CCOc1oc(-c2ccco2)nc1C(=O)O [CA329] yielded an inhibition at 1.25 µM of 1%. With Cc1ccc(S(=O)(=O)NCCc2ccc(F)cc2)cc1C(=O)O [CA330] the inhibition at 1.25 µM was -0.35%. In the case of Cc1nc(-c2ccco2)ccc1C(=O)O [CA331], the inhibition at 1.25 µM is reported as -2.82%. O=C(CC1(C(=O)O)CCCC1)N1CCOCC1 [CA332] was tested, and the inhibition at 1.25 µM was -3.79%. CN(Cc1ccccc1)C(=O)N1CCC(C(=O)O)CC1 [CA333] showed an inhibition at 1.25 µM of -0.9%. O=C(O)C1(NS(=O)(=O)C=Cc2ccccc2)CCCC1 [CA334] gave an inhibition at 1.25 µM of 6.5%. In the case of O=C(O)C(Cc1ccccc1)N1CCCOC1=O (centres unmarked) [CA335], the inhibition at 1.25 µM is reported as -1.08%. Work on O=C(O)c1ccc(N2CCCS2(=O)=O)cc1 [CA336] yielded an inhibition at 1.25 µM of -1.03%. Cc1ccc(CN2C(=O)CCC2C(=O)O)cc1 (centres unmarked) [CA337] showed an inhibition at 1.25 µM of -1.16%. Molecule O=C(O)c1nc(C2CC2)ncc1Br [CA338] has an inhibition at 1.25 µM of -0.51%. CN1C(=O)CCC(C(=O)O)C1c1cccs1 (centres unmarked) [CA339] gave an inhibition at 1.25 µM of -5.82%. COc1ccc(CC(=O)O)cc1S(=O)(=O)N1CCOCC1 [CA340] showed an inhibition at 1.25 µM of -0.36%. O=C(O)c1ccc(-c2ccccn2)s1 [CA341] showed an inhibition at 1.25 µM of 3.46%. For Cc1noc(C)c1S(=O)(=O)N1CCCC1C(=O)O (centres unmarked) [CA342], the inhibition at 1.25 µM was 1.55%. Cc1cc(C(=O)N(C)c2ccccc2C(=O)O)sc1C [CA343] showed an inhibition at 1.25 µM of 8.07%. For O=C(O)c1ccc(N2CCCCCC2)nc1 [CA344], the inhibition at 1.25 µM was 47%. O=C(O)CC1=NN(c2cccc(Cl)c2)C(=O)C1 [CA345] gave an inhibition at 1.25 µM of 4.68%. Molecule Cc1oc(-c2cccs2)nc1C(=O)O [CA346] has an inhibition at 1.25 µM of 12.6%. In the case of O=C(O)c1ccnc(C2CC2)n1 [CA347], the inhibition at 1.25 µM is reported as 1.21%. Cn1ccnc1CN1CCC(C(=O)O)CC1 [CA348] showed an inhibition at 1.25 µM of -2.62%. O=C(O)c1cc(C2CC2)no1 [CA349] showed an inhibition at 1.25 µM of 5.85%.
